According to US10597398B2, “Suppression and regeneration promoting effect of low molecular weight compound on cancer and fibrosis” (NATIONAL UNIVERSITY CORPORATION TOTTORI UNIVERSITY, priority 2015, dated 2020):

Legend:
Wnt/β-catenin signaling = experiment: Inhibitory effect on Wnt/β-catenin signaling in mesenchymal stem cells (E7-TCF4 luciferase); format: cell-based, human; settings: concentration equal to or lower than that of IC-2
Description: A pTCF4-CMVpro-GL4.20 plasmid vector, having 3 copies of TCF4 motifs (CCT TTG ATC) upstream of aCMV promoter in a multiple cloning site of pGL4.20 (Promega Corp., Fitchburg, Wis.), was linearized and stably transfected into UE7T-13 cells to prepare E7-TCF4 cells. Also, a pCMVpro-GL4.20 plasmid vector, having a CMV promoter in a multiple cloning site of pGL4.20, was linearized and stably transfected into UE7T-13 cells. The resulting stable cells (E7-CMV cells) were cultured, like UE7T-13 cells, in 10% FBS/DMEM containing 0.25 μg/mL puromycin.
UE7T-13 cells were used to measure Wnt/β-catenin signaling activity. The concentrations of the respective compounds were as described in FIG. 42. Each control sample used was 0.1% DMSO, a solvent for each compound.
First, 70 to 90% confluent E7-TCF4 cells and E7-CMV cells were harvested and seeded (n=3) at 1.6758×10^4 cells/well of a 24-well plate (9.0×10^3 cells/cm^2). One day after that, each compound was added to the cells and the mixture was cultured at 37° C. Day 4 after the compound addition, the culture medium was changed.
At day 1, 4, or 8 after the compound treatment, the culture medium was discarded, and 100 μL of room temperature 5×Passive Lysis Buffer (PLB), which had been diluted 5-fold with MilliQ water, was added to each well. Next, the plate was shaken at room temperature for 15 min and was then frozen at −30° C. overnight. A Luciferase Assay Substrate was diluted with 10 mL of room temperature Luciferase Assay Buffer II to prepare Luciferase Assay Reagent II (LARII). The frozen PLB lysate samples were thawed and permeabilized for 15 min. Then, 10 μL aliquots were added to wells of a 96-well white plate. While 50 μL aliquots of LARII were each added to each well, luminescence was quantified by using a 1420 multi-label counter ARVO MX to determine firefly luciferase activity.

HuH-7 cells = experiment: Growth inhibitory effect on cancer cells (WST assay), Example 2.3; format: cell-based, human; settings: HuH-7 cells, WST assay, concentrations 0-50 μM, control 0.1% DMSO
Method in brief: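 HuH-7 human hepatoma cells seeded at 5×10^3 cells/well, treated after 24 h with compound at 0–50 μM (0.1% DMSO vehicle control), n=3. Viability read by WST (CCK-8) absorbance at 450/600 nm after 60 min at 37 °C, taken 0, 24, 48 and 96 h post-treatment; kit-only blank subtracted.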

unsorted HuH-7 cells = experiment: Mice subcutaneously transplanted with unsorted HuH-7 cells; format: in vivo; settings: mice transplanted with unsorted HuH-7 cells instead of CD44-positive HuH-7 cells
Source text: The effect of treating malignant tumors may be evaluated by imaging, endoscopic examination, biopsy, or detection of a malignant tumor marker. In addition, the effect of treating cancer stem cells may be evaluated by imaging, endoscopic examination, biopsy, or detection of a cancer stem cell marker. In addition, the effect of treating fibrosis may be evaluated by imaging, endoscopic examination, biopsy, or detection of a fibrosis marker. […] At this time, the level of a marker after administration of a therapeutic drug may be 0.7, 0.5, 0.3, or 0.1 times the level before the administration (or of a control). […] At this time, the number of marker-positive cells after administration of the therapeutic drug may be 0.7, 0.5, 0.3, or 0.1 times the number before the administration (or of a control). Note that in Example 6 below, the therapeutic effect was evaluated using mice in which CD44-positive HuH-7 cells had been subcutaneously transplanted. The present inventors also replaced the above CD44-positive HuH-7 cells by unsorted HuH-7 cells.

Structure (SMILES) | inhibitory effect on Wnt/β-catenin signaling pathway in mesenchymal stem cells compared with IC-2 (Wnt/β-catenin signaling) | IC50 (HuH-7 cells) [µM] | effect of treating a malignant tumor (unsorted HuH-7 cells)
COc1ccc(COc2ccc(CNC(=O)N3CCC(=O)N4C(Cc5ccccc5)C(=O)N(Cc5cccc6ccccc56)CC34)cc2)cc1 (stereo not drawn) [IC-2-OPMB] | more potent inhibitory effect | > 50 | –
O=C1C(Cc2ccccc2)N2C(=O)CCN(C(=O)NCc3ccccc3)C2CN1Cc1cccc2ccccc12 (stereo not drawn) [IC-2] | – | – | exhibits an effect of treating a malignant tumor
